The record followed here is patent US10138230B2, “Autotaxin inhibitors” (CANCER RESEARCH TECHNOLOGY LIMITED, priority 2015, dated 2018).

The experiment concerns the target human recombinant ATX (Homo sapiens (Human), UniProt Q13822). As to the kind of experiment: Autotaxin (ATX) activity Quanta Red assay. The conditions noted are these: 15 μM Rac-1-Palmitoyl-glycero-3-phosphocholine, 2 hours room temperature, determined in duplicate. It counts as biochemical. The protocol: The ATX enzyme assay (Quanta Red assay) described in accompanying Example section may be used to measure the pharmacological effects of the compounds of the present invention.
Autotaxin (ATX) Activity Quanta Red Assay
Measuring ATX activity using an enzyme coupled Quanta Red assay (Thermo Scientific—Pierce Protein Research Products, Product #15159) was determined as follows. 8 μL human recombinant ATX (final concentration 0.8 μg/mL) in 1× Assay buffer containing 50 mM Tris-HCl (pH 8.0), 5 mM CaCl2 was added to an opaque black flat-bottom 384-well plate (Corning, #3575) containing 2 μL test compound in 40% DMSO (4% final DMSO concentration). 10 μL of Quanta Red, Horseradish peroxidase (HRP), Choline Oxidase (CO), Rac-1-Palmitoyl-glycero-3-phosphocholine solution (final concentration 1:250 for Quanta Red, 0.5units/ml HRP, 0.5units/ml CO, 15 μM Rac-1-Palmitoyl-glycero-3-phosphocholine) in 1× assay buffer (as described previously) was added to each well to start the reaction and the plate was incubated at room temperature for 2 hours. The reaction was stopped after 2 hours with a 20 μL addition of Quanta Red Stop solution (1:20 dilution in distilled water). The above-described mixture with DMSO alone was used as a positive control whereas that with DMSO alone without ATX was taken as a negative control.
For each test compound, ten concentrations were measured covering a range of 6.1 nM to 120 μM to determine IC50 values. The top concentration was decreased to 1.2 μM when a test compound's IC50 value was evaluated in low nanomolar range. Fluorescence was determined in a BMG Labtech Pherastar plus plate reader ([…]). Data were analysed using Excel fit software. IC50 values were determined in duplicate.

Where a name gives a salt, the structure may show the parent alone.

Regarding `O=C(N[C@@H]1CCN(c2ccc(CN3CCOCC3)cc2)C1)c1nnc(CCc2ccc(Cl)cc2)s1` [Compound F131, 5-[2-(4-chloro-phenyl)-ethyl]-[1,3,4]thiadiazole-2-carboxylic acid [(R)-1-(4-morpholin-4-ylmethyl-phenyl)-pyrrolidin-3-yl]-amide hydrochloride], the IC50 – broadly, the point on the concentration scale where inhibition reaches its midpoint – was 2 nM. Next, `CN(Cc1ccc(N2C[C@@H](C(=O)Nc3nnc(CCc4ccc(Cl)cc4)s3)CC2=O)cc1)C1COC1` [Compound F88, (3S)-N-[5-[2-(4-chlorophenyl)ethyl]-1,3,4-thiadiazol-2-yl]-1-[4-[[methyl(oxetan-3-yl)amino]methyl]phenyl]-5-oxo-pyrrolidine-3-carboxamide]: 1 nM; `O=C(Nc1nnc(CCC2CCCO2)s1)[C@H]1CC(=O)N(c2ccc(CN3CCOCC3)cc2)C1` (stereo partly drawn) [Compound F186, (3S)-1-[4-(morpholinomethyl)phenyl]-5-oxo-N-[5-(2-tetrahydrofuran-2-ylethyl)-1,3,4-thiadiazol-2-yl]pyrrolidine-3-carboxamide]: 134 nM. As to `O=C(Nc1ccc(CCc2ccc(F)cc2)nn1)C1CC(=O)N(c2ccc(CN3CCOCC3)cc2)C1` (stereo not shown) [Compound F149, 1-(4-morpholin-4-ylmethyl-phenyl)-5-oxo-pyrrolidine-3-carboxylic acid {6-[2-(4-fluoro-phenyl)-ethyl]-pyridazin-3-yl}-amide], the IC50 is 7 nM. In the case of `CN(Cc1ccc(N2CC(C(=O)Nc3nnc(CCc4ccc(Cl)cc4)s3)CC2=O)cc1)C1CCOCC1` (stereo not shown) [Compound F111, N-[5-[2-(4-chlorophenyl)ethyl]-1,3,4-thiadiazol-2-yl]-1-[4-[[methyl(tetrahydropyran-4-yl)amino]methyl]phenyl]-5-oxo-pyrrolidine-3-carboxamide], the IC50 was determined as 3 nM.

On to `O=C(Nc1cnc(CCc2ccccc2)s1)C1CC(=O)N(c2ccc(CN3CCOCC3)cc2)C1` (stereo not shown) [Compound F201, 1-[4-(morpholinomethyl)phenyl]-5-oxo-N-[2-(2-phenylethyl)thiazol-5-yl]pyrrolidine-3-carboxamide], for which the IC50 stood at 1070 nM.

Consider `O=C(Nc1nnc(CCC2CCCCO2)s1)[C@H]1CC(=O)N(c2ccc(CN3CCCCC3)cc2)C1` (stereo partly drawn) [Compound F164, (3S)-5-oxo-1-[4-(1-piperidylmethyl)phenyl]-N-[5-(2-tetrahydropyran-2-ylethyl)-1,3,4-thiadiazol-2-yl]pyrrolidine-3-carboxamide], for which the concentration for half-maximal inhibition (IC50) amounted to 70 nM. Take `O=C1CC(NCc2nnc(CCc3ccc(Cl)cc3)s2)CN1c1ccc(CN2CCOCC2)cc1` (stereo not shown) [Compound F183, 4-({5-[2-(4-Chloro-phenyl)-ethyl]-[1,3,4]thiadiazol-2-ylmethyl}-amino)-1-(4-morpholin-4-ylmethyl-phenyl)-pyrrolidin-2-one; hydrochloride]: the IC50 amounted to 23 nM. As for `CC1CN(Cc2ccc(N3CC(C(=O)Nc4nnc(CCc5ccc(Cl)cc5)s4)CC3=O)cc2)C[C@H](C)O1` (stereo in doubt) [Compound F125, N-[5-[2-(4-chlorophenyl)ethyl]-1,3,4-thiadiazol-2-yl]-1-[4-[[(2S,6S)-2,6-dimethylmorpholin-4-yl]methyl]phenyl]-5-oxo-pyrrolidine-3-carboxamide], the IC50 is 8 nM.

`CN(Cc1ccc(N2C[C@@H](C(=O)Nc3ccc(CCc4ccc(F)cc4)nn3)CC2=O)cc1)C1CCOCC1` [Compound F126, (3S)-N-[6-[2-(4-fluorophenyl)ethyl]pyridazin-3-yl]-1-[4-[[methyl(tetrahydropyran-4-yl)amino]methyl]phenyl]-5-oxo-pyrrolidine-3-carboxamide]: the IC50 stood at 8 nM. Take `O=C(Nc1ccc(CCc2ccc(F)cc2)nn1)[C@H]1CC(=O)N(c2ccc(CN3CCCCC3)cc2)C1` [Compound F178, (3S)-N-[6-[2-(4-fluorophenyl)ethyl]pyridazin-3-yl]-5-oxo-1-[4-(1-piperidylmethyl)phenyl] pyrrolidine-3-carboxamide]: the IC50 was determined as 30 nM.

Regarding `CCN(Cc1ccc(N2CC(C(=O)Nc3nnc(CCc4ccc(Cl)cc4)s3)CC2=O)cc1)C(C)C` (stereo not shown) [Compound F127, N-[5-[2-(4-chlorophenyl)ethyl]-1,3,4-thiadiazol-2-yl]-1-[4-[[ethyl(isopropyl)amino]methyl]phenyl]-5-oxo-pyrrolidine-3-carobxamide], the 50% inhibitory concentration (IC50) amounted to 9 nM. With `O=C(Nc1nnc(CCc2ccc(Cl)cc2)s1)[C@@H]1CC(=O)N(c2ccc(CN3CCOCC3)cc2)C1` [Compound F161, (3R)-N-[5-[2-(4-chlorophenyl)ethyl]-1,3,4-thiadiazol-2-yl]-1-[4-(morpholinomethyl)phenyl]-5-oxo-pyrrolidine-3-carboxamide], the 50% inhibitory concentration (IC50) stood at 37 nM. `CN(Cc1ccc(N2C[C@@H](C(=O)Nc3nnc(CCc4ccc(Cl)cc4)s3)CC2=O)cc1)C1CCOC1` (stereo partly drawn) [Compound F87, (3S)-N-[5-[2-(4-chlorophenyl)ethyl]-1,3,4-thiadiazol-2-yl]-1-[4-[[methyl(tetrahydrofuran-3-yl)amino]methyl]phenyl]-5-oxo-pyrrolidine-3-carboxamide]: the IC50 worked out at 1 nM. For `O=C(Nc1nnc(CCc2ccc(Cl)cc2)s1)[C@H]1CC(=O)N(c2ccc(CN3CC4CC4C3)cc2)C1` (stereo partly drawn) [Compound F103, (3S)-1-[4-(3-azabicyclo[3.1.0]hexan-3-ylmethyl)phenyl]-N-[5-[2-(4-chlorophenyl)ethyl]-1,3,4-thiadiazol-2-yl]-5-oxo-pyrrolidine-3-carboxamide], the IC50 was 3 nM.

As for `O=C(Nc1cc(CCc2ccccc2)no1)C1CC(=O)N(c2ccc(CN3CCOCC3)cc2)C1` (stereo not shown) [Compound F200, 1-[4-(morpholinomethyl)phenyl]-5-oxo-N-[3-(2-phenylethyl)isoxazol-5-yl]pyrrolidine-3-carboxamide], the IC50 was found to be 760 nM. On to `O=C(Nc1nnc(CCc2ccc(Cl)cc2)s1)[C@H]1CC(=O)N(c2ccc(CN3CCCOCC3)cc2)C1` [Compound F104, (3S)-N-[5-[2-(4-chlorophenyl)ethyl]-1,3,4-thiadiazol-2-yl]-1-[4-(1,4-oxazepan-4-ylmethyl)phenyl]-5-oxo-pyrrolidine-3-carboxamide], for which the IC50 came to 3 nM. Next, `CCN(Cc1ccc(N2CC(C(=O)Nc3nnc(CCc4ccc(Cl)cc4)s3)CC2=O)cc1)CC(C)C` (stereo not shown) [Compound F112, N-[5-[2-(4-chlorophenyl)ethyl]-1,3,4-thiadiazol-2-yl]-1-[4-[[ethyl(isobutyl)amino]methyl]phenyl]-5-oxo-pyrrolidine-3-carboxamide]: 3 nM; `O=C(NC1CC(=O)N(c2ccc(CN3CCCCC3)cc2)C1)c1cc(CCc2ccccc2)[nH]n1` (stereo not shown) [Compound F204, 5-phenethyl-1H-pyrazole-3-carboxylic acid [5-oxo-1-(4-piperidin-1-ylmethyl-phenyl)-pyrrolidin-3-yl]-amide hydrochloride]: 1080 nM; `O=C(Nc1nnc(CCC2CCCC2)s1)C1CC(=O)N(c2ccc(CN3CCC(F)(F)CC3)cc2)C1` (stereo not shown) [Compound F123, N-[5-(2-cyclopentylethyl)-1,3,4-thiadiazol-2-yl]-1-[4-[(4,4-difluoro-1-piperidyl)methyl]phenyl]-5-oxo-pyrrolidine-3-carboxamide]: 5 nM.

In the case of `O=C(NC1CC(=O)N(c2ccc(CN3CCCOCC3)cc2)C1)c1nnc(CCc2ccc(Cl)cc2)s1` (stereo not shown) [Compound F129, 5-[2-(4-chlorophenyl)ethyl]-N-[1-[4-(1,4-oxazepan-4-ylmethyl)phenyl]-5-oxo-pyrrolidin-3-yl]-1,3,4-thiadiazole-2-carboxamide], the IC50 is 2 nM. Next, `O=C(Nc1nnc(CCC2CCCC2)s1)C1CC(=O)N(c2ccc(CN3CCC(F)CC3)cc2)C1` (stereo not shown) [Compound F113, N-[5-(2-cyclopentylethyl)-1,3,4-thiadiazol-2-yl]-1-[4-[(4-fluoro-1-piperidyl)methyl]phenyl]-5-oxo-pyrrolidine-3-carboxamide]: 3 nM; `O=C(NC1CC(=O)N(c2ccc(CN3CCCCC3)cc2)C1)c1cc(CCc2ccccc2)on1` (stereo not shown) [Compound F175, N-[5-oxo-1-[4-(1-piperidylmethyl)phenyl]pyrrolidin-3-yl]-5-(2-phenylethyl)isoxazole-3-carboxamide]: 47 nM; `CC(C)(O)CCNCc1ccc(N2C[C@H](NC(=O)c3nnc(CCc4ccc(Cl)cc4)s3)CC2=O)cc1` [Compound F170, 5-[2-(4-chlorophenyl)ethyl]-N-[(3R)-1-[4-[[(3-hydroxy-3-methyl-butyl)amino]methyl]phenyl]-5-oxo-pyrrolidin-3-yl]-1,3,4-thiadiazole-2-carboxamide hydrochloride]: 58 nM. The value for `COCCN(C)Cc1ccc(N2CC(NC(=O)c3nnc(CCc4ccc(Cl)cc4)s3)CC2=O)cc1` (stereo not shown) [Compound F142, 5-[2-(4-chlorophenyl)ethyl]-N-[1-[4-[[2-methoxyethyl(methyl)amino]methyl]phenyl]-5-oxo-pyrrolidin-3-yl]-1,3,4-thiadiazole-2-carboxamide] was 9 nM.
